From article PMC11361161 (BMC Chemistry, 2024) come the findings set out here.

This experiment concerns the target human thymidylate synthase (hTS) (Homo sapiens, UniProt P04818). The experiment in a line: Thymidylate synthase inhibitory assay. In kind it is biochemical.

Read-outs that look alike come from different tables or passages of the source.

Sequence of human thymidylate synthase (hTS) (P04818 whole entry): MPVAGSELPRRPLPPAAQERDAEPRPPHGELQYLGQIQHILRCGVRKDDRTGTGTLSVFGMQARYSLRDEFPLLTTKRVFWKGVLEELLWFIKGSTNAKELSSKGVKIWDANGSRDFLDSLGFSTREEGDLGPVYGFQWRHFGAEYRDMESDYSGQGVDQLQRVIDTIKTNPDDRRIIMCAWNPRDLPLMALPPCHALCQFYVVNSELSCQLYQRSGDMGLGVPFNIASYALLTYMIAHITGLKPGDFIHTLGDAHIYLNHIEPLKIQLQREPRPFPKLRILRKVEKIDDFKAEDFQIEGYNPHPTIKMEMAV

The IC50 is the concentration that gives 50% inhibition. As to `COc1ccc(-c2cc(-c3ccc(N(C)C)cc3)c3c(=O)n(C)c(=O)n(C)c3n2)cc1` [Compound 2j, 5-(4-(dimethylamino)phenyl)-7-(4-methoxyphenyl)-1,3-dimethylpyrido[2,3-d]pyrimidine-2,4(1 H,3 H)-dione], the half-maximal inhibitory concentration (IC50) came out at 0.0135 ± 0.00096 µM.

`COc1ccc(-c2cc(-c3ccc(N(C)C)cc3)c3c(=O)[nH]c(=O)[nH]c3n2)cc1` [Compound 1j, 5-(4-(dimethylamino)phenyl)-7-(4-methoxyphenyl)pyrido[2,3-d]pyrimidine-2,4(1 H,3 H)-dione] had an IC50 of 0.0205 ± 0.00109 µM.

“7-(4-methoxyphenyl)-1,3-dimethyl-5-(naphthalen-2-yl)pyrido[2,3-d]pyrimidine-2,4(1 H,3 H)-dione [Compound 2n]”: the 50% inhibitory concentration (IC50) (read-out: In vitro thymidylate synthase (TS) IC50, 30 °C, pH 7.4, 30 nM hTS, absorbance at 340 nm, mean ± SEM, triplicate) was 0.0135 ± 0.00096 µM.

`COc1ccc(-c2cc(-c3ccc4ccccc4c3)c3c(=O)[nH]c(=O)[nH]c3n2)cc1` [Compound 1n, 7-(4-methoxyphenyl)-5-(naphthalen-2-yl)pyrido[2,3-d]pyrimidine-2,4(1 H,3 H)-dione] came in with an IC50 of 0.0205 ± 0.00109 µM.
